# From patent US20180037595A1, “BENZOXABOROLE COMPOUNDS AND USES THEREOF” (GLAXOSMITHKLINE INTELLECTUAL PROPERTY (NO.2) LIMITED, priority 2015, published 2018)
# Where two headings read alike, the source gives them in different places.
# Experiments:
# [1] = tested on: M. tuberculosis standard strain Mtb H37Rv; test: MIC determination against mycobacteria (resazurin microtiter assay); type: cell-based, Mycobacterium tuberculosis; settings: for Selectivity Index (A/B): HepG2 cell 48 h Tox50 (A) / Mtb H37Rv MIC (B); for MIC: Mycobacterium tuberculosis, H37RV, read-out: Mtb H37Rv MIC (B)
# Human mito LeuRS = target: T1, Human mito LeuRS (Homo sapiens, UniProt Q15031); test: LeuRS aminoacylation assay, IC50 determination; type: biochemical
# T1 sequence (Q15031 1-903): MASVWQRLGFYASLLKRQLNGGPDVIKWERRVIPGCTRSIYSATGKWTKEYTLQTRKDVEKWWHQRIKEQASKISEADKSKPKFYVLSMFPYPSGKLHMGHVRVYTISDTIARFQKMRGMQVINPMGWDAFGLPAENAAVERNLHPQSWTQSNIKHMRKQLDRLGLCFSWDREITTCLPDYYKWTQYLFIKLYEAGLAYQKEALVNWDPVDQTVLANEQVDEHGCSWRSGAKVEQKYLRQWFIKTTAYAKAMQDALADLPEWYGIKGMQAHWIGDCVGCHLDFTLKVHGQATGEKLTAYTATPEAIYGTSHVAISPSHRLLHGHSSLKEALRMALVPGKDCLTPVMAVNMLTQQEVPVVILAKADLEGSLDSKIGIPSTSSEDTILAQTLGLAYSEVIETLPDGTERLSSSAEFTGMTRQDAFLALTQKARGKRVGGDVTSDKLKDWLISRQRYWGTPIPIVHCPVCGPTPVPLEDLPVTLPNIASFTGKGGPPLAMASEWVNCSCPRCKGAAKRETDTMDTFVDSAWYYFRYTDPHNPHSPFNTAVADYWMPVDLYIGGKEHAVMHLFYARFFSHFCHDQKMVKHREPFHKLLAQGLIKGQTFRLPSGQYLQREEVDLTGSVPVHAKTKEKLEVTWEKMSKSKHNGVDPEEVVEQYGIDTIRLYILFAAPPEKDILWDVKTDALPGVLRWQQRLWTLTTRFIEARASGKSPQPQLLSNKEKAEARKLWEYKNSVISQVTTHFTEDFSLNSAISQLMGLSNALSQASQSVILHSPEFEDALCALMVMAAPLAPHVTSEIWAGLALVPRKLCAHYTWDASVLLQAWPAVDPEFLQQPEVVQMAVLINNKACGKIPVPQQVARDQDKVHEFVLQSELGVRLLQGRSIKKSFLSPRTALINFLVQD
# A. baumannii ATCC 17978 = test: General antimicrobial activity assay (CLSI broth microdilution); type: cell-based
# Experimental: (§1) Whole-cell antimicrobial activity was determined by broth microdilution using the Clinical and Laboratory Standards Institute (CLSI) recommended procedure, Document M7-A7, “Methods for Dilution Susceptibility Tests for Bacteria that Grow Aerobically”.
# P. aeruginosa PA01 = test: as above; type: cell-based
# Experimental: as §1
# E. coli K12 = test: as above; type: cell-based
# Experimental: as §1
# E. coli K12 tolC::Tn10 = test: as above; type: cell-based; settings: Escherichia coli, read-out: MIC: E. coli K12 tolC::Tn10
# Experimental: as §1
# HepG2 cells = test: HepG2 cytotoxicity assay (resazurin); type: cell-based
# Mtb LeuRS = Mtb LeuRS (Mycobacterium tuberculosis, UniProt P9WFV1); test: LeuRS aminoacylation assay, IC50 determination; type: biochemical, M. tuberculosis
# Experimental: For biochemical analyses an N-terminal six histidine-tagged LeuRS was over-expressed in Escherichia coli which were E. coli codon-optimised (GenScript, Piscataway N.J., USA), from human mitochondria and cytoplasm, and M. tuberculosis. N-terminal six histidine-tagged LeuRS proteins were over-expressed and purified according to Novagen (Madison, Wis., USA) using an E. coli BL21(DE3) T7 RNA polymerase over-expression strain.
# Experiments were performed in 96-well microtiter plates, using 80 μL reaction mixtures containing 50 mM HEPES-KOH (pH 8.0), 30 mM MgCl2 30 mM KCl, 13 μM L-[^14C]leucine (306 mCi/mmol, Perkin-Elmer), 15 uM total E. coli tRNA (Roche, Switzerland), 0.02% (w/v) BSA, 1 mM DTT, 0.2 μM LeuRS and 4 mM ATP at 30° C. Reactions were started by the addition of 4 mM ATP. After 7 minutes, reactions were quenched and tRNA was precipitated by the addition of 50 μL of 10% (w/v) TCA and transferred to 96-well nitrocellulose membrane filter plates (Millipore Multiscreen HTS, MSHAN4B50). Each well was then washed three times with 100 μL of 5% TCA. Filter plates were then dried under a heat lamp and the precipitated L-[^14C]leucine tRNALeu were quantified by liquid scintillation counting using a Wallac MicroBeta Trilux model 1450 liquid scintillation counter (PerkinElmer, Waltham, Mass., USA). The only difference was with the human cytoplasmic LeuRS when we used tRNA isolated from Brewer's Yeast (Roche Diagnostics GmbH).
# Reactions were initiated by the addition of 4 mM ATP. Reactions were stopped after 7 minutes then precipitated and counted to quantify radioactivity. IC50 values were determined using the Graphpad Prism software package (Graphpad Software Inc. (La Jolla, Calif., USA).
# Human cyto LeuRS = Human cyto LeuRS (Homo sapiens, UniProt Q9P2J5); test: LeuRS aminoacylation assay, IC50 determination; type: biochemical
# [2] = tested on: M. tuberculosis clinical isolates; test: MIC against clinical strains (BACTEC MGIT 960 System); type: cell-based; settings: Mycobacterium tuberculosis, nearly all of the clinical isolate strains of Tables 2A-2D
# [3] = Acinetobacter baumannii, ATCC17978, read-out: MIC: A. baumannii ATCC 17978
# [4] = Pseudomonas aeruginosa, PA01, read-out: MIC: P. aeruginosa PA01
# [5] = Escherichia coli, K12, read-out: MIC: E. coli K12
# [6] = Homo sapiens, HepG2, 48 h, read-out: HepG2 cell 48 h Tox50 (A)
# [7] = said to be sub-micromolar, read-out: IC50 values against M. tuberculosis
# [8] = listed as EXAMPLE 4 G4-Cl, hydrochloride
# [9] = Acinetobacter baumannii, ATCC17978; read-out: MIC: A. baumannii ATCC 17978
# [10] = Pseudomonas aeruginosa, PA01; read-out: MIC: P. aeruginosa PA01
# [11] = Escherichia coli, K12; read-out: MIC: E. coli K12
# [12] = Homo sapiens, HepG2, 48 h; read-out: HepG2 cell 48 h Tox50 (A)
# Chain of Mtb LeuRS (P9WFV1 whole entry): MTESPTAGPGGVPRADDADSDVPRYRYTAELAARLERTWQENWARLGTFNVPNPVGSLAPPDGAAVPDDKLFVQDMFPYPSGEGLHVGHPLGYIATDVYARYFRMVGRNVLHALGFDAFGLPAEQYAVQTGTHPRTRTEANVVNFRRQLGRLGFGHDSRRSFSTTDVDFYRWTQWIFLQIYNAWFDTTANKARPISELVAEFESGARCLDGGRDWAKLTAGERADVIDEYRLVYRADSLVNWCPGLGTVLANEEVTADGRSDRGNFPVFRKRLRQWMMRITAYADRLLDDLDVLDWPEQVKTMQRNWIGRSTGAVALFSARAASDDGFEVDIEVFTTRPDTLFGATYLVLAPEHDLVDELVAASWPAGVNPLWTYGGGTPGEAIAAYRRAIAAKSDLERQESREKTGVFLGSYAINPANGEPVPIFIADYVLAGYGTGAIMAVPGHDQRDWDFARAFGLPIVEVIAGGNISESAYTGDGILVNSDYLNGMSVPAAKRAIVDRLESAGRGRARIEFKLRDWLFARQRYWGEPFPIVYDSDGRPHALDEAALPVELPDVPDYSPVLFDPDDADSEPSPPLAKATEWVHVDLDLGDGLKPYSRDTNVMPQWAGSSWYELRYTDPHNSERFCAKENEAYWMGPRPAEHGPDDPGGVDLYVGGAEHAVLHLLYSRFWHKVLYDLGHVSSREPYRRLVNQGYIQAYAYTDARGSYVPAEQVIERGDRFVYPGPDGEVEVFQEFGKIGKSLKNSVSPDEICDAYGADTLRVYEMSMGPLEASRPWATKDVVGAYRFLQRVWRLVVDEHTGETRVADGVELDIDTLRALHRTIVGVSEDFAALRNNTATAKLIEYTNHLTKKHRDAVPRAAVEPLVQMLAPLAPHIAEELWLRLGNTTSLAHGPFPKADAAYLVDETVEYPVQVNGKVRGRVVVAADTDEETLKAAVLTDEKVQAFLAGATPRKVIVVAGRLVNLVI
# Chain of Human cyto LeuRS (Q9P2J5 whole entry): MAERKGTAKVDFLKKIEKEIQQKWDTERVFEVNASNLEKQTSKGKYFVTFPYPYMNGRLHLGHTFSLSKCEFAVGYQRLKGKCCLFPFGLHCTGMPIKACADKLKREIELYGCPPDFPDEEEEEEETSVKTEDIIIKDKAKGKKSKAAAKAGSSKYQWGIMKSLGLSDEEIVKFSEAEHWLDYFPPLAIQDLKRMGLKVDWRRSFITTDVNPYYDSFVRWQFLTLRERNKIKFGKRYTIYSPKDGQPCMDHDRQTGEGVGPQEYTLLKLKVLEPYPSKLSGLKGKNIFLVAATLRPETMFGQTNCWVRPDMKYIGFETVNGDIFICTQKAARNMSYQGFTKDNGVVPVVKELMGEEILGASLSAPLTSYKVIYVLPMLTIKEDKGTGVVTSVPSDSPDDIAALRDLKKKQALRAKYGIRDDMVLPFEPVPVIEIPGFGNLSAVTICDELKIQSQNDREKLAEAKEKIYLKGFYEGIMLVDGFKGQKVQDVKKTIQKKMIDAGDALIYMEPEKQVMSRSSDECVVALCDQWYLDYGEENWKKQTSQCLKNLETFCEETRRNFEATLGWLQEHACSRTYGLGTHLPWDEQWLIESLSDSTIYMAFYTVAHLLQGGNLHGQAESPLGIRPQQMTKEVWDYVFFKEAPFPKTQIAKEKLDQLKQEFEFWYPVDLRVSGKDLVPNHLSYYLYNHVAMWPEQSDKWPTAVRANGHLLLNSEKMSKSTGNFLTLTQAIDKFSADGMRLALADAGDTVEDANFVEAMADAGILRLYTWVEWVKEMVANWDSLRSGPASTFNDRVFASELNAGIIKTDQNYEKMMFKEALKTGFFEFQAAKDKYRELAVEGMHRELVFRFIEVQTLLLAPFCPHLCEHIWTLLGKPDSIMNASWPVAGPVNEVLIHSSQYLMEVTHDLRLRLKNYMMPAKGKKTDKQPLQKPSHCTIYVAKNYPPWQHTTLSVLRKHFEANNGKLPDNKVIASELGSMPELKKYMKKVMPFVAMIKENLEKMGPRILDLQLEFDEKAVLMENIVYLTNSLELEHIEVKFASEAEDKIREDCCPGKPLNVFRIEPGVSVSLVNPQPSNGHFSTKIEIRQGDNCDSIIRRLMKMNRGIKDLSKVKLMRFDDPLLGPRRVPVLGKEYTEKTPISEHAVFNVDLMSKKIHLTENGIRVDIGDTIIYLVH
structure (smiles),measurement,setting,value
"NCC1OB2OCCOc3cccc1c32 (racemic) [Example C2-H, reference compound]",Selectivity Index (A/B),[1],>26
same,IC50,Human mito LeuRS,> 300 µM
same,MIC,A. baumannii ATCC 17978; [3],2 µg/mL
same,MIC,P. aeruginosa PA01; [4],2 µg/mL
same,MIC,E. coli K12; [5],2 µg/mL
same,MIC,E. coli K12 tolC::Tn10,4 µg/mL
same,IC50,HepG2 cells; [6],> 50 µM
same,IC50,Mtb LeuRS; read-out: Mtb LeuRS IC50,0.506 µM
same,IC50,Human cyto LeuRS,272 µM
"Cl.NC[C@H]1OB2OCCOc3ccc(Br)c1c32 [Example 2, (S)-(3-bromo-7,8-dihydro-2H-1,6,9-trioxa-9a-borabenzo[cd]azulen-2-yl)methanamine hydrochloride]",Selectivity Index (A/B),[1],4177
same,MIC,[1],< 0.1 µM
same,Mtb H37Rv MIC (B),"[1]; listed as EXAMPLE 2 G2-Br, hydrochloride",0.07 µM
same,IC50,Human mito LeuRS,> 300 µM
same,MIC,[2],< 0.1 µM
same,MIC,A. baumannii ATCC 17978; [3],64 µg/mL
same,MIC,P. aeruginosa PA01; [4],64 µg/mL
same,MIC,E. coli K12; [5],64 µg/mL
same,MIC,E. coli K12 tolC::Tn10,64 µg/mL
same,IC50,HepG2 cells; [6],292 µM
same,IC50,Mtb LeuRS; read-out: Mtb LeuRS IC50,0.115 µM
same,IC50,Mtb LeuRS; [7],0.13 µM
same,IC50,Human cyto LeuRS,118 µM
"Cl.NC[C@H]1OB2OCCOc3ccc(Cl)c1c32 [Example 4, (S)-(3-chloro-7,8-dihydro-2H-1,6,9-trioxa-9a-borabenzo[cd]azulen-2-yl)methanamine hydrochloride]",Selectivity Index (A/B),[1]; [8],>12500
same,Selectivity Index (A/B),"[1]; listed as Example 4 G4-CI, hydrochloride","> 12,500"
same,MIC,[1],< 0.1 µM
same,Mtb H37Rv MIC (B),[1]; [8],0.08 µM
same,IC50,Human mito LeuRS,> 300 µM
same,MIC,A. baumannii ATCC 17978; [3],64 µg/mL
same,MIC,P. aeruginosa PA01; [4],64 µg/mL
same,MIC,E. coli K12; [5],64 µg/mL
same,MIC,E. coli K12 tolC::Tn10,64 µg/mL
same,IC50,HepG2 cells; [6],> 1000 µM
same,IC50,Mtb LeuRS; read-out: Mtb LeuRS IC50,0.148 µM
same,IC50,Mtb LeuRS; [7],0.1 µM
same,IC50,Human cyto LeuRS,94.7 µM
"CC1(C)COc2ccc(Br)c3c2B(O[C@@H]3CN)O1.Cl [Example 10, (S)-(3-bromo-8,8-dimethyl-7,8-dihydro-2H-1,6,9-trioxa-9a-borabenzo[cd]azulen-2-yl)methanamine hydrochloride]",MIC,[1],0.16 µM
same,MIC,A. baumannii ATCC 17978; [3],> 64 µg/mL
same,MIC,P. aeruginosa PA01; [4],> 64 µg/mL
same,MIC,E. coli K12; [5],> 64 µg/mL
same,MIC,E. coli K12 tolC::Tn10,> 64 µg/mL
same,IC50,HepG2 cells; [6],460 µM
same,IC50,Mtb LeuRS; read-out: Mtb LeuRS IC50,1.13 µM
same,IC50,Human cyto LeuRS,> 300 µM
"CC1(C)COc2ccc(Cl)c3c2B(OC3CN)O1.Cl (stereo not shown) [Example 11, (3-chloro-8,8-dimethyl-7,8-dihydro-2H-1,6,9-trioxa-9a-borabenzo[cd]azulen-2-yl)methanamine hydrochloride]",Selectivity Index (A/B),"[1]; listed as EXAMPLE 11 G11-Cl, hydrochloride",>185
same,Selectivity Index (A/B),"[1]; listed as Example 11 G11-CI, hydrochloride",> 185
same,MIC,[1],0.27 µM
same,MIC,A. baumannii ATCC 17978; [3],> 64 µg/mL
same,MIC,P. aeruginosa PA01; [4],> 64 µg/mL
same,MIC,E. coli K12; [5],> 64 µg/mL
same,MIC,E. coli K12 tolC::Tn10,> 64 µg/mL
same,IC50,HepG2 cells; [6],> 50 µM
same,IC50,Mtb LeuRS; read-out: Mtb LeuRS IC50,0.68 µM
same,IC50,Human cyto LeuRS,> 300 µM
"CC1(C)COc2ccc(Cl)c3c2B(O[C@@H]3CN)O1.Cl [Example 12, (S)-(3-chloro-8,8-dimethyl-7,8-dihydro-2H-1,6,9-trioxa-9a-borabenzo[cd]azulen-2-yl)methanamine hydrochloride]",MIC,[1],0.08 µM
same,MIC,A. baumannii ATCC 17978; [3],> 64 µg/mL
same,MIC,P. aeruginosa PA01; [4],> 64 µg/mL
same,MIC,E. coli K12; [5],> 64 µg/mL
same,MIC,E. coli K12 tolC::Tn10,> 64 µg/mL
same,IC50,HepG2 cells; [6],322 µM
same,IC50,Mtb LeuRS; read-out: Mtb LeuRS IC50,0.78 µM
same,IC50,Human cyto LeuRS,> 300 µM
"CCOc1ccc(Br)c2c1B(O)O[C@@H]2CN [Example C4-Br, reference compound]",IC50,Human mito LeuRS,> 300 µM
same,MIC,A. baumannii ATCC 17978; [9],64 µg/mL
same,MIC,P. aeruginosa PA01; [10],64 µg/mL
same,MIC,E. coli K12; [11],64 µg/mL
same,MIC,E. coli K12 tolC::Tn10,64 µg/mL
same,IC50,HepG2 cells; [12],32 µM
same,IC50,Mtb LeuRS; Mtb LeuRS IC50,0.07 µM
same,IC50,Human cyto LeuRS,31 µM
"CCOc1cccc2c1B(O)O[C@@H]2CN [Example C5-H, reference compound]",Selectivity Index (A/B),[1],5
same,IC50,Human mito LeuRS,> 300 µM
same,IC50,HepG2 cells; [12],1.8 µM
same,IC50,Mtb LeuRS; read-out: Mtb LeuRS IC50,0.111 µM
same,IC50,Human cyto LeuRS,25.6 µM
"CCOc1ccc(Cl)c2c1B(O)O[C@@H]2CN [Example C6-Cl, reference compound]",IC50,Human mito LeuRS,> 300 µM
same,MIC,A. baumannii ATCC 17978; [9],64 µg/mL
same,MIC,P. aeruginosa PA01; [10],64 µg/mL
same,MIC,E. coli K12; [11],64 µg/mL
same,MIC,E. coli K12 tolC::Tn10,64 µg/mL
same,IC50,HepG2 cells; [12],36.3 µM
same,IC50,Mtb LeuRS; Mtb LeuRS IC50,0.05 µM
NC[C@H]1OB2OCCOc3ccc(Cl)c1c32 [Example G4-CI],MIC,[2],< 0.1 µM
